The results in this text go back to ChEMBL document CHEMBL4699469, “Recent Developments in the Biology and Medicinal Chemistry of CDK9 Inhibitors: An Update” (J Med Chem, 2020).

Data set [1] concerns the target T1, Cyclin-dependent kinase 9 (Homo sapiens, UniProt P50750).
The nature of data set [2]: Solubility of the compound at pH 8.7. In kind it is physicochemical. As to conditions: buffer.
Data set [3] in a line: Solubility of the compound at pH 6.8. Type of data set: physicochemical. As to conditions: buffer.
Data set [4] can be described thus: Oral bioavailability in mouse. In kind it is ADME, organism-based. The following applies: in vivo.
The test system of a further data set is MV4-11. Nature of the data set: Antitumor activity against human MV4-11 cells xenografted in mouse assessed as tumor growth inhibition at 7.5 mg/kg relative to control. In kind it is functional. As to conditions: read-out: TGI.
The target in data set [5] is T2, Protein cereblon/Cyclin-dependent kinase 9 (Homo sapiens, UniProt P50750+Q96SW2). As to the kind of experiment: Induction of CRBN-mediated CDK9 degradation in human MOLT4 cells incubated for 6 hrs by Western blot analysis. The following applies: molt-4. Type of data set: cell-based.
In a further data set the test system is MOLT-4. Nature of the data set: Antiproliferative activity against human MOLT4 cells incubated for 72 hrs by cell titer glo assay. The following applies: MOLT-4, 72 h. Type of data set: functional, cell-based.
The target of the next data set is CDK2/Cyclin A2 (Homo sapiens, UniProt P24941). As to the kind of experiment: Inhibition of human CDK2/cyclin A expressed in insect cells using histone H1 as substrate incubated for 30 mins by scintillation counting method.
Data set [6] concerns the target T3, CDK9/cyclin T1 (Homo sapiens, UniProt P50750). Nature of the data set: Inhibition of human CDK9/cyclin T expressed in insect cells using pRB fragment (773 to 928 residues) as substrate incubated for 30 mins by scintillation counting method.
For data set [7], the target named is T3, CDK9/cyclin T1. As to the kind of experiment: Inhibition of human CDK9 (1 to 372 residues)/N-terminal GST-fused His-tagged CyclinT1 (1 to 726 residues) expressed in baculovirus expression system incubated for 0.5 to 1 hr by TR-FRET assay.
The target of data set [8] is T3, CDK9/cyclin T1. Nature of the data set: Inhibition of His-tagged human CDK9/cyclin T1 expressed in insect cells using biotinylated-cdk7tide peptide incubated for 5 hrs by Alpha Screen assay.
The target of data set [9] is T3, CDK9/cyclin T1. Nature of the data set: Inhibition of His-tagged human CDK9/cyclin T1 expressed in insect cells using biotin Ttds-YISPLKSPYKISEG as substrate preincubated for 15 mins followed by ATP and substrate addition and measured after 25 mins by TR-FRET assay.
The target of data set [10] is T4, Cyclin-dependent kinase 2/cyclin E1 (Homo sapiens, UniProt P24941). As to the kind of experiment: Inhibition of His-tagged human CDK2 (M1 to L298 residue)/cyclin E1 (M1 to A395 residue) expressed in sf9 insect cells using biotin Ttds-YISPLKSPYKISEG as substrate preincubated for 15 mins followed by ATP and substrate addition and measured after 25 mins by TR-FRET assay.

A further data set has as its system MOLM-13. As to the kind of experiment: Antiproliferative activity against human MOLM-13 cells incubated for 72 hrs by Cell Titre-Glo luminescent assay. In kind it is functional, cell-based. The following applies: MOLM-13, 72 h.
For data set [11], the target named is T2, Protein cereblon/Cyclin-dependent kinase 9. As to the kind of experiment: Induction of CRBN-mediated CDK9 degradation in human HCT116 cells assessed as reduction in CDK9 level incubated for 6 hrs by Western blot analysis. The following applies: hct-116. In kind it is cell-based.
Data set [12] deals with Cyclin-dependent kinase 2 (Homo sapiens, UniProt P24941).
Data set [13] has as its target T5, Cyclin-dependent kinase 7 (Homo sapiens, UniProt P50613). Nature of the data set: Inhibition of CDK7 (unknown origin).
The target in data set [14] is Cyclin-dependent kinase 1 (Homo sapiens, UniProt P06493). Nature of the data set: Inhibition of CDK1 (unknown origin).
The target of data set [15] is Cyclin-dependent kinase 4 (Homo sapiens, UniProt P11802). Nature of the data set: Inhibition of CDK4 (unknown origin).
For data set [16], the target named is T5, Cyclin-dependent kinase 7. Nature of the data set: Binding affinity to wild-type human full length CDK7 (M1 to L344 residues) expressed in mammalian expression system by Kinomescan method.
In data set [17] the target is T1, Cyclin-dependent kinase 9. As to the kind of experiment: Binding affinity to wild-type human full length CDK9 (M1 to F372 residues) expressed in bacterial expression system by Kinomescan method.
The target in data set [18] is T2, Protein cereblon/Cyclin-dependent kinase 9. As to the kind of experiment: Induction of CRBN-mediated CDK9 degradation in human MCF-7 cells after 24 hrs by Western analysis. In kind it is cell-based. As to conditions: mcf7.
Data set [19] deals with T4, Cyclin-dependent kinase 2/cyclin E1. As to the kind of experiment: Inhibition of His-tagged human CDK2/cyclin E1 expressed in insect cells using biotin Ttds-YISPLKSPYKISEG as substrate preincubated for 15 mins followed by ATP and substrate addition and measured after 25 mins by TR-FRET assay.

Each structure is given as a SMILES string. Values after ≈ are worked out from the molar mass of the structure shown. Some results are limits rather than exact numbers.

As for `CN1CC[C@H](c2c(OP(=O)(O)O)cc(O)c3c(=O)cc(-c4ccccc4Cl)oc23)[C@H](O)C1` [TP-1287], inhibition in [1] was half-maximal at 84 nM (IC50). In addition, the solubility is 9300 µg/mL (≈ 19.3 mM) in data set [2] and 9500 µg/mL (≈ 19.7 mM) in data set [3]. The F in data set [4] worked out at 182.3%. Moreover, in the data set with MV4-11, the inhibition in vivo at 7.5 mg/kg amounted to 109%.
As to `CC(C)(C)c1cnc(CSc2cnc(NC(=O)C3CCN(CC(=O)NCCOCCOCCOCCNc4cccc5c4C(=O)N(C4CCC(=O)NC4=O)C5=O)CC3)s2)o1` (stereo not given), in data set [5], the half-maximal degradation concentration (DC50) is less than 250 nM. In the data set with MOLT-4, this molecule gave an IC50 of 50 nM.
On to `Nc1nccc(-c2c3cccnc3n3c(N)nccc23)n1`, for which the IC50 was less than 210 nM on CDK2/Cyclin A2 and less than 40 nM on CDK9/cyclin T1 [6].
For the molecule `COc1ccc(F)cc1-c1ncnc2[nH]c(C3CCNCC3)cc12`, the IC50 on CDK9/cyclin T1 [7] came out at 13 nM.
Consider `O=C(Nc1cc(-c2cccc(NCc3cccc(F)c3)n2)c(Cl)cn1)[C@H]1CNCCO1`, for which the concentration for half-maximal inhibition (IC50) against CDK9/cyclin T1 [8] is less than 8 nM.
In the case of `CS(=N)(=N)Cc1cc2cc(c1)OCCCCOc1c(F)cccc1-c1nc(ncc1F)N2`, the values for the IC50 (against CDK9/cyclin T1 [9]; in [10]; in the data set on MOLM-13) were 3.4 nM, 7520 nM and 126 nM, respectively.
For the molecule `O=C1CCC(N2C(=O)c3cccc(OCCCCCOc4ccc(CC(=O)Nc5cc(C6CCC6)n[nH]5)cc4)c3C2=O)C(=O)N1` (stereo not given), the half-maximal degradation concentration (DC50) in [11] was 8000 nM.
For the molecule `C[C@H](CO)Nc1nc(Nc2ccc(S(N)(=O)=O)cc2)ncc1Br`, the half-maximal inhibitory concentration (IC50) in data set [1] amounted to 5 nM; in data set [12], 4 nM; in data set [13], 85 nM; in data set [14] it was 50 nM; in [15] it was 61 nM.
In the data set with MOLT-4, `CC(C)(C)c1cnc(CSc2cnc(NC(=O)C3CCNCC3)s2)o1` [BMS-387032] had an IC50 of 173 nM.
Regarding `Cn1ncc(-c2nc(N[C@H]3CC[C@H](N)CC3)ncc2Cl)c1CC1CC1` [BTX-A51], the figures for the Kd in [16] and in data set [17] were 1.3 nM and 4 nM, respectively.
In [18], `O=C1CCC(N2C(=O)c3cccc(NC(=O)CCCCCn4cc(COc5c(O)cc(O)c6c(=O)cc(-c7ccccc7)oc56)nn4)c3C2=O)C(=O)N1` (stereo not given) showed a DC50 of 10000 nM.
Turning to `COc1cc(F)ccc1-c1ncnc(Nc2cccc(S(C)(=O)=O)c2)n1`, in data set [19], the IC50 was determined as 608 nM.
